Values of other authors in patent US5773415A, “Use of des-aspartate-angiotensin I as an anti-cardiac hypertrophic agent” (National University of Singapore, priority 1995, dated 1998).

tested on: specific aminopeptidase; conditions: homogenates of rat aorta and hypothalamus

Row | Inhibition of the aminopeptidase degrading angiotensin I to des-Aspartate-angiotensin I | SMILES
1 | not inhibited | O=C(O)CN(CCN(CC(=O)O)CC(=O)O)CC(=O)O [EDTA]
2 | not inhibited | CC(C)C[C@@H](N)[C@H](O)C(=O)N[C@H](C(=O)N[C@H](C(=O)N[C@@H](CC(=O)O)C(=O)O)C(C)C)C(C)C [amastatin]
3 | not inhibited | CC(C)C[C@H](NC(=O)[C@@H](O)[C@H](N)Cc1ccccc1)C(=O)O [bestatin]
